According to PubChem BioAssay AID1918998 (Molecular Pharmacology Branch, DTP, NCI, 2023):
“And” between values parts separate entries of the source, which are not always exact repeats. Identical values can stand only once.

Test system: 521955-158-R2-J5-PDC complex spheroid growth
Experiment: Anticancer human tumor 521955-158-R2-J5-PDC patient-derived pancreatic carcinoma cell line growth inhibition [AhR]
Conditions: for viability, T/C: stronger effect = lower value
Method in brief: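 Agents were dosed in half-log steps down from roughly clinical Cmax, or from 10 microM where Cmax was unknown, alone and with AhR antagonists. Read-out: percent test/control growth of tumor spheroids containing HUVEC and MSC stromal cells.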

[1] = curve of first compound, second compound 0.1 µM
[2] = curve of first compound, second compound 0.316 µM
[3] = curve of first compound, second compound 1 µM
[4] = curve of first compound, second compound 3.16 µM
[5] = curve of first compound, second compound 10 µM
[6] = second compound 0.1 µM, first compound 0.0316 µM
[7] = second compound 0.1 µM, first compound 0.1 µM
[8] = second compound 0.1 µM, first compound 0.316 µM
[9] = second compound 0.1 µM, first compound 1 µM
[10] = second compound 0.316 µM, first compound 0.0316 µM
[11] = second compound 0.316 µM, first compound 0.1 µM
[12] = second compound 0.316 µM, first compound 0.316 µM
[13] = second compound 0.316 µM, first compound 1 µM
[14] = second compound 1 µM, first compound 0.0316 µM
[15] = second compound 1 µM, first compound 0.1 µM
[16] = second compound 1 µM, first compound 0.316 µM
[17] = second compound 1 µM, first compound 1 µM
[18] = second compound 3.16 µM, first compound 0.0316 µM
[19] = second compound 3.16 µM, first compound 0.1 µM
[20] = second compound 3.16 µM, first compound 0.316 µM
[21] = second compound 3.16 µM, first compound 1 µM
[22] = second compound 10 µM, first compound 0.0316 µM
[23] = second compound 10 µM, first compound 0.1 µM
[24] = second compound 10 µM, first compound 0.316 µM
[25] = second compound 10 µM, first compound 1 µM
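For viability, T/C in this document: spheroids mix tumor cells with HUVEC endothelium and human MSC stroma; luminescence taken as viability surrogate after a week of drug exposure.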

| IC50 [1] | IC50 [2] | IC50 [3] | IC50 [4] | IC50 [5] | Compound | viability, T/C [6] | viability, T/C [7] | viability, T/C [8] | viability, T/C [9] | viability, T/C [10] | viability, T/C [11] | viability, T/C [12] | viability, T/C [13] | viability, T/C [14] | viability, T/C [15] | viability, T/C [16] | viability, T/C [17] | viability, T/C [18] | viability, T/C [19] | viability, T/C [20] | further results |
| --- | --- | --- | --- | --- | --- | --- | --- | --- | --- | --- | --- | --- | --- | --- | --- | --- | --- | --- | --- | --- | --- |
| 518 nM | 549 nM | 504 nM | 178 nM | 101 nM | Nc1ccn(C2OC(CO)C(O)C2(F)F)c(=O)n1 (configuration not stated) + CC(CO)NC(=O)c1cc(-c2ccc(Cl)cc2)nn(-c2cnn(C)c2)c1=O | 59.8% | 75.3% | 72.4% | 24.4% | 56% | 73.8% | 86.4% | 26.1% | 90.5% | 87.8% | 68.7% | 22.6% | 78.1% | 56.4% | 45.5% | viability, T/C (second compound 0.1 µM, first compound 3.16 µM): 13.2%; viability, T/C (second compound 0.1 µM, first compound 10 µM): 13.6%; viability, T/C (second compound 0.316 µM, first compound 3.16 µM): 11.4%; viability, T/C (second compound 0.316 µM, first compound 10 µM): 9.09%; viability, T/C (second compound 1 µM, first compound 3.16 µM): 14.2%; viability, T/C (second compound 1 µM, first compound 10 µM): 14.8%; viability, T/C [21]: 20.9%; viability, T/C (second compound 3.16 µM, first compound 3.16 µM): 16.4%; viability, T/C (second compound 3.16 µM, first compound 10 µM): 11.9%; viability, T/C [22]: 50.2%; viability, T/C [23]: 54.5%; viability, T/C [24]: 36.3%; viability, T/C [25]: 22.5%; viability, T/C (second compound 10 µM, first compound 3.16 µM): 15.5%; viability, T/C (second compound 10 µM, first compound 10 µM): 10.5% |
| – | – | – | – | – | NS(=O)(=O)OCC1CC(n2ccc3c(NC4CCc5ccccc54)ncnc32)CC1O (configuration not stated) | – | – | – | – | – | – | – | – | – | – | – | – | – | – | – | viability, T/C (compound 0.0316 µM): 86.2% and 98.4% and 88.1%; viability, T/C (compound 0.1 µM): 99.3% and 98.1% and 95.9%; viability, T/C (compound 0.316 µM): 83.6% and 87.9% and 66%; viability, T/C (compound 1 µM): 54.8% and 54.6% and 36.6%; viability, T/C (compound 3.16 µM): 36.5% and 32.9% and 19.3%; viability, T/C (compound 10 µM): 30.5% and 21% and 16.8%; IC50 (curve of compound): 1330 nM and 598 nM |
| 621 nM | 652 nM | > 1000 nM | 803 nM | > 1000 nM | Nc1ncn(C2CC(O)C(CO)O2)c(=O)n1 (configuration not stated) + CC(CO)NC(=O)c1cc(-c2ccc(Cl)cc2)nn(-c2cnn(C)c2)c1=O | 106% | 70.9% | 67.9% | 40.1% | 107% | 70.8% | 68.1% | 41.2% | 120% | 78.6% | 67.8% | 50.8% | 87.3% | 87.1% | 64.7% | viability, T/C (second compound 0.1 µM, first compound 0.00316 µM): 113%; viability, T/C (second compound 0.1 µM, first compound 0.01 µM): 105%; viability, T/C (second compound 0.316 µM, first compound 0.00316 µM): 97.2%; viability, T/C (second compound 0.316 µM, first compound 0.01 µM): 107%; viability, T/C (second compound 1 µM, first compound 0.00316 µM): 111%; viability, T/C (second compound 1 µM, first compound 0.01 µM): 85.7%; viability, T/C (second compound 3.16 µM, first compound 0.00316 µM): 98.2%; viability, T/C (second compound 3.16 µM, first compound 0.01 µM): 95.2%; viability, T/C [21]: 46.4%; viability, T/C (second compound 10 µM, first compound 0.00316 µM): 83.3%; viability, T/C (second compound 10 µM, first compound 0.01 µM): 87%; viability, T/C [22]: 74.1%; viability, T/C [23]: 80.2%; viability, T/C [24]: 62.4%; viability, T/C [25]: 51% |
